Entries after “also recorded” stand apart in the source; their conditions may differ.
Experiments:
H3K9me3(1–16) peptides [1] = assay: bio-layer interferometry (BLI); format: binding; conditions: 20 mM Hepes KOH pH 7.2, 70 mM KCl; GST fusion; association 120 s, dissociation 120 s; WT 28.0 μM, R38/9K 25.5 μM, R38/9A 28.3 μM and lower concentrations
Experimental: Recombinant mouse full-length HP1 wildtype and mutant proteins were expressed in (as GST fusion proteins), and purified from, Escherichia coli as described. Proteins were concentrated using Amicon Ultra centrifugation filters with a 30 kDa cutoff (Millipore), washed into binding buffer (20 mM Hepes KOH pH 7.2, 70 mM KCl, 1 mM DTT, 0.1% Tween-20, 5% glycerol). Protein concentrations were determined by Bradford protein assay against a BSA standard, and purity was verified by SDS-PAGE followed by Coomassie-blue staining. Real-time binding assays of GST-HP1γ were performed using the BLItz® system (ForteBio) in binding buffer (+ 0.1% BSA). Biotinylated H3(1–16) peptides (NH2-[…](me3)STGGKAP-Biotin) were immobilised to Dip and Read High Precision Streptavidin (SAX) Biosensors (ForteBio), and kinetics for a range of protein concentrations were measured under advanced kinetics settings (1. initial baseline measuring buffer only: 30 s, 2. loading of peptides onto sensors: 120 s, 3. effective baseline measurement: 30 s, 4. association of GST-HP1γ proteins: 120 s, 5. dissociation of GST-HP1γ proteins: 120 s). The data were normalised to the effective baseline signal by subtracting the average baseline value (150–180 s) from each data point (150–420 s). […] Raw data are summarised in Additional file 3: Table S1.

mESCs = assay: HP1γ foci formation, fluorescence imaging of mEos3.2; format: cell-based, mouse; conditions: +/− LIF 72 h
Experimental: Parental E14 mouse embryonic stem cell (mESC) line was profiled by transcriptome analysis, qPCR and potency assays and was routinely tested for mycoplasma contamination and tested negative. Cells were cultured in DMEM (Gibco) supplemented with 15% standard FCS (Gibco), 0.1 mM non-essential amino acids (Gibco), 1% penicillin/streptomycin, 2 mM L-glutamine (Gibco), 1 mM sodium pyruvate (Gibco), 0.1 mM β-mercaptoethanol (Life Technologies) and 10^6 units/l mLIF (ESGRO, Millipore). E14 cells were stored in incubators at 37 °C in 7.5% CO2 (100% humidity) and maintained in 0.1% gelatin coated 10-cm culture dishes with 1:6 passaging every 2 days. Media was changed on a daily basis. E14 ESCs expressing mouse mEos3.2–HaloTag-HP1 fusion proteins were generated by transfecting appropriate pSB7 plasmids into E14 cells using Lipofectamine 2000 transfection reagent (Invitrogen), followed by selection in 600 µg/ml geneticin (Life Technologies). […]
An IX73 Olympus inverted microscope was used with circularly polarised laser beams aligned and focused at the back aperture of an Olympus 1.40 NA 100 × oil objective (Universal Plan Super Apochromat, 100 × , NA 1.40, UPLSAPO100XO/1.4). […] The fluorescence emission was collected through the same objective and then further filtered using a combination of long-pass and band-pass filters (BLP01-561R and FF01-587/35 for 561 nm excitation). […]

H3K9me3(1–16) peptides [2] = assay: peptide pulldown assay; format: binding; conditions: 300 mM NaCl HBS-EP; Coomassie gel; n = 3 (p values 0.021, 0.008; ns 0.181)
Experimental: H3K9me3 or unmethylated H3(1–16) peptides, linked to Dynabeads MyOne streptavidin T1 (Thermo Fisher Scientific), were used in pulldown assays with eluted GST-HP1 in HBS-EP (300 mM NaCl, 10 mM HEPES KOH pH 7.4, 5 mM EDTA and 0.2% NP-40). Pulldown assays were performed in 300 mM NaCl HBS-EP as previously described. Samples were resuspended in 2 × Laemmli buffer and resolved by SDS-PAGE followed by Coomassie-blue staining. Images were quantified using ImageJ software.

HP1γWT: full-length mouse HP1γ wild type, as GST or mEos3.2–HaloTag fusion protein
BLI binding, in words (H3K9me3(1–16) peptides [1]): binds exclusively to H3K9me3 peptides
foci formation, WT- versus R38/9A-expressing cells (mESCs): no apparent difference

HP1γR38/9A: HP1γ with alanine substitutions at amino acids 38 and 39 to mimic citrullination
BLI binding, in words (H3K9me3(1–16) peptides [1]): begin to plateau at significantly lower amounts compared to the WT protein; also recorded: distinctly different kinetic behaviour compared to the WT protein
foci formation, WT- versus R38/9A-expressing cells (mESCs): no apparent difference
binding in pulldown, in words (H3K9me3(1–16) peptides [2]): significantly reduced

From PMC6444592, “Citrullination of HP1γ chromodomain affects association with chromatin” (Epigenetics & Chromatin, 2019)
